Common to all, as to type: functional
Assay [1] deals with ALK tyrosine kinase receptor (Homo sapiens, UniProt Q9UM73).
Assay [2] has as its target Death-associated protein kinase 3 (Homo sapiens, UniProt O43293).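 Also: measured as one member of a kinome-wide profiling panel.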
The target of assay [3] is Serine/threonine-protein kinase pim-1 (Homo sapiens, UniProt P11309).
The target of the next assay is T1, Aurora kinase A (Homo sapiens, UniProt O14965).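 Also: value from the Navigating the Kinome kinase panel profiling, panel entry STK6.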
T1 sequence (O14965 whole entry): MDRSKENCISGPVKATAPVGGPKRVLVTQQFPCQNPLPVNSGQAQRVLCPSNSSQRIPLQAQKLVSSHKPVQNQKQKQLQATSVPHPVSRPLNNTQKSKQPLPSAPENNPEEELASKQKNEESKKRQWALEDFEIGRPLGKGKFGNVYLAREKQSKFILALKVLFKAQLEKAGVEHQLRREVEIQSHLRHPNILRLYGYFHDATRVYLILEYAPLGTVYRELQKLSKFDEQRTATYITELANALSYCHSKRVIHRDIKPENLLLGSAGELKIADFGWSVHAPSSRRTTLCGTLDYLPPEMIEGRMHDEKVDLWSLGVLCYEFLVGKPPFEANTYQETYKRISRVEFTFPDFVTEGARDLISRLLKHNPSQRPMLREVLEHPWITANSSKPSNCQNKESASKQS

Assay [4] deals with T2, Serine/threonine-protein kinase TAO1 (Homo sapiens, UniProt Q7L7X3).
T2 sequence (Q7L7X3 whole entry): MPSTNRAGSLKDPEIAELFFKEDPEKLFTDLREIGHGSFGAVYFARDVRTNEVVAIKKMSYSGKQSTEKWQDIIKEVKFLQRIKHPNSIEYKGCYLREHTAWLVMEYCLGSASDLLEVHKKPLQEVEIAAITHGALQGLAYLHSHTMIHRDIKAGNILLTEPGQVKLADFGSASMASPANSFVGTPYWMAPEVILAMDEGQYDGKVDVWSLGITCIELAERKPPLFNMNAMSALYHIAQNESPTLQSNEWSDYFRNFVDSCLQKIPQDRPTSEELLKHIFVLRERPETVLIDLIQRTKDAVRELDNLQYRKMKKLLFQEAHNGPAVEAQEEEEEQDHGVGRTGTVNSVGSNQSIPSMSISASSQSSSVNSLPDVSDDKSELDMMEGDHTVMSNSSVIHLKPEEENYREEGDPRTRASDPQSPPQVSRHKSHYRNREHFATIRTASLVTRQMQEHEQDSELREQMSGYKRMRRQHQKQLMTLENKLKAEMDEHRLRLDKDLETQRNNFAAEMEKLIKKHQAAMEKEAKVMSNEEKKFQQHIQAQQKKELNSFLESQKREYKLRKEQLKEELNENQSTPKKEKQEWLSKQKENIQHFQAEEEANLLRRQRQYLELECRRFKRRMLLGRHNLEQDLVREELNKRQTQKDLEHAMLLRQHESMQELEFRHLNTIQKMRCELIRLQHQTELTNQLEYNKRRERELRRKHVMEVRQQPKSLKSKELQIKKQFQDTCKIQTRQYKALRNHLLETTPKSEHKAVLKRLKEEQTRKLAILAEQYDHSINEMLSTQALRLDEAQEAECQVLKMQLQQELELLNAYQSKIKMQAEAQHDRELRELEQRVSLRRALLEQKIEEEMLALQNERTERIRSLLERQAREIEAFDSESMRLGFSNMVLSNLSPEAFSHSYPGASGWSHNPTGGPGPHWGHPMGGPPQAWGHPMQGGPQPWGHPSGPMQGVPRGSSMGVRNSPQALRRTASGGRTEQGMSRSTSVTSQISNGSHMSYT

In assay [5] the target is T3, cAMP-dependent protein kinase catalytic subunit PRKX (Homo sapiens, UniProt P51817).
T3 sequence (P51817 whole entry): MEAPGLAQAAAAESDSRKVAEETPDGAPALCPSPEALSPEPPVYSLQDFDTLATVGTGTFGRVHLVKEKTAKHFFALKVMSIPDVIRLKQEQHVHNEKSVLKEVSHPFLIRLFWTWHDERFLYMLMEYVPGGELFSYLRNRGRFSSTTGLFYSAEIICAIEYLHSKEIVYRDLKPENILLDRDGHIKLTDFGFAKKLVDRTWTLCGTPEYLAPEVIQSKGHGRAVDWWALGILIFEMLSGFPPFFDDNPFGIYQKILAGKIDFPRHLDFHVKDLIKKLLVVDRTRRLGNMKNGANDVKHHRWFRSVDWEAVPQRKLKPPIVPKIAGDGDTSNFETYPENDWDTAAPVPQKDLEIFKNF

In assay [6] the target is Tyrosine-protein kinase Fyn (Homo sapiens, UniProt P06241).
The target in assay [7] is Glycogen synthase kinase-3 beta (Homo sapiens, UniProt P49841).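 Also: value comes from a broad kinome profiling panel, with GSK3B as the panel member.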
For assay [8], the target named is Macrophage-stimulating protein receptor (Homo sapiens, UniProt Q04912). Kind of assay: Navigating the Kinome. Panel member name: MST1R.
The target of assay [9] is Dual specificity mitogen-activated protein kinase kinase 2 (Homo sapiens, UniProt P36507). In words: Navigating the Kinome. Panel member name: MAP2K2.
Assay [10] has as its target Mitogen-activated protein kinase 9 (Homo sapiens, UniProt P45984).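 Also: value from a kinome panel profiling assay, MAPK9 panel entry.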

Calls of active or inactive are those of the source.

One may read the Ki as the equilibrium dissociation constant of an inhibitor or competing ligand from its target.

Macrophage-stimulating protein receptor, sequence (Q04912 25-304 limits assumed): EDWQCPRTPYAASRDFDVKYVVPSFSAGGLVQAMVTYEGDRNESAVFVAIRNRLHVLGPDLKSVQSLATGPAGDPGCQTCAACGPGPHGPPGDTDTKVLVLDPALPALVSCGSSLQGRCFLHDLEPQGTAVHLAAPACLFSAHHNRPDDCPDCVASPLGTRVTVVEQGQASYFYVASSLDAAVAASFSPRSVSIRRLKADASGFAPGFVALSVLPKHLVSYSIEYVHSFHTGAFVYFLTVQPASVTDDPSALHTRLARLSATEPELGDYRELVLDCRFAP
Macrophage-stimulating protein receptor, sequence (Q04912 310-1400 limits assumed): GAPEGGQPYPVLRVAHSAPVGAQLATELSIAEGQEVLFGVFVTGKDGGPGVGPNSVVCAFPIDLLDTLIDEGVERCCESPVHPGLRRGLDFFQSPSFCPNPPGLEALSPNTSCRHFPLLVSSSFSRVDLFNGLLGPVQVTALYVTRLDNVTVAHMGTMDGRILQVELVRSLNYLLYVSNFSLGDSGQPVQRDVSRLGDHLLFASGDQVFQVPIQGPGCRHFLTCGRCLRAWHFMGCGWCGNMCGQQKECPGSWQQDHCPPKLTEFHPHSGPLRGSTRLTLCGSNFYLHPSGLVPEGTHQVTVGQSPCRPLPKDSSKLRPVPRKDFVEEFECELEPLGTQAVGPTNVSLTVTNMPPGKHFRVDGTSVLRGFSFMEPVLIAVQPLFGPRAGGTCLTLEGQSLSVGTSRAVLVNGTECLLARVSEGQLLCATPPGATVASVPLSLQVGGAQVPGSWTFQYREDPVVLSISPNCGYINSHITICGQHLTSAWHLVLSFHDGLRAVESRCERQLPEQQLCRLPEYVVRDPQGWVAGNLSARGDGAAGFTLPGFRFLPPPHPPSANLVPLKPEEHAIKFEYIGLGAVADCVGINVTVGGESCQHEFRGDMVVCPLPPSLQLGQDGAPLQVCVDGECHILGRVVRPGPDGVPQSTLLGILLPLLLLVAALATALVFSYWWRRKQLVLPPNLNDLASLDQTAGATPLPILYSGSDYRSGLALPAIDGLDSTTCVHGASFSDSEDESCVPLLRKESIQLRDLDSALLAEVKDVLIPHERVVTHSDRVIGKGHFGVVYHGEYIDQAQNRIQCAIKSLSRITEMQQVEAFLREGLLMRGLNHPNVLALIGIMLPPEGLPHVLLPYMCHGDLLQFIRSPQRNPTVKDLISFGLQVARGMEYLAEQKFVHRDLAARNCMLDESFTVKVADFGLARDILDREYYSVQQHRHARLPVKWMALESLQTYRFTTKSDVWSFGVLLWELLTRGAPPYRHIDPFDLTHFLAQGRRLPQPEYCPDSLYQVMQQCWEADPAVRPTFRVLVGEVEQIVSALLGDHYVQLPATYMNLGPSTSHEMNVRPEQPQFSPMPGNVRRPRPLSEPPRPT
Dual specificity mitogen-activated protein kinase kinase 2, sequence (P36507 whole entry): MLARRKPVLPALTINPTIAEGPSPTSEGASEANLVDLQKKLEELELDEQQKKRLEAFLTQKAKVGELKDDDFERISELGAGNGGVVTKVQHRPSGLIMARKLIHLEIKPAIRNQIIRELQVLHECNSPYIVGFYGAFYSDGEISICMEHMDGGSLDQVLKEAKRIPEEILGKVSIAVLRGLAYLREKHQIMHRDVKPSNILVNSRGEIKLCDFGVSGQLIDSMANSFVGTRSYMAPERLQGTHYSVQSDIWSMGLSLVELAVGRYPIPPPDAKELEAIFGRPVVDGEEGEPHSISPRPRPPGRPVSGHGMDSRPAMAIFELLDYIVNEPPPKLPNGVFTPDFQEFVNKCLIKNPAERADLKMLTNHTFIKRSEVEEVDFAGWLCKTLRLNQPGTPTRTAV
Glycogen synthase kinase-3 beta, sequence (P49841 whole entry): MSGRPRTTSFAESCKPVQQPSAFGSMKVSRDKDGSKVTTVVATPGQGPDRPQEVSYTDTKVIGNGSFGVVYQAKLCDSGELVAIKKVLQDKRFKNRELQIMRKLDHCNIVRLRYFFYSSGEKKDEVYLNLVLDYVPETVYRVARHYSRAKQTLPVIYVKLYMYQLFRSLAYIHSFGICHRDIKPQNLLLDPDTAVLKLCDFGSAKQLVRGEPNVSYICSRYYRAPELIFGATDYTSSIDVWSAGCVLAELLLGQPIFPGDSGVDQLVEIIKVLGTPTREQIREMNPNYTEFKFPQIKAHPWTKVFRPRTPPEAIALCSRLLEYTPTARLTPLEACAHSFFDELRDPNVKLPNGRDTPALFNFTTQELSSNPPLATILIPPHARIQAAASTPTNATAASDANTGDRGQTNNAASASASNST
Death-associated protein kinase 3, sequence (O43293 whole entry): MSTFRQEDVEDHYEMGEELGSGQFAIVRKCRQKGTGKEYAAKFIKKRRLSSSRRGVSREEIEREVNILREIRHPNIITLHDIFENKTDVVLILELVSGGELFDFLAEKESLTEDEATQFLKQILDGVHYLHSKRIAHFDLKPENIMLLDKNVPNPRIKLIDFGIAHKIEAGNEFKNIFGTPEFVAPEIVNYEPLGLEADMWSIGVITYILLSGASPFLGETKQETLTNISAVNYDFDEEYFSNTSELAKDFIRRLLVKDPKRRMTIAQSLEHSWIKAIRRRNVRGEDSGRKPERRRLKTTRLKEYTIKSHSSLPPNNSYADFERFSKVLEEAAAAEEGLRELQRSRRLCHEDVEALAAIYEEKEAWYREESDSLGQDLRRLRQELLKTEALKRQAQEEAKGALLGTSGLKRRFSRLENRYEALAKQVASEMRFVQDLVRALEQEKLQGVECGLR
Mitogen-activated protein kinase 9, sequence (P45984 whole entry): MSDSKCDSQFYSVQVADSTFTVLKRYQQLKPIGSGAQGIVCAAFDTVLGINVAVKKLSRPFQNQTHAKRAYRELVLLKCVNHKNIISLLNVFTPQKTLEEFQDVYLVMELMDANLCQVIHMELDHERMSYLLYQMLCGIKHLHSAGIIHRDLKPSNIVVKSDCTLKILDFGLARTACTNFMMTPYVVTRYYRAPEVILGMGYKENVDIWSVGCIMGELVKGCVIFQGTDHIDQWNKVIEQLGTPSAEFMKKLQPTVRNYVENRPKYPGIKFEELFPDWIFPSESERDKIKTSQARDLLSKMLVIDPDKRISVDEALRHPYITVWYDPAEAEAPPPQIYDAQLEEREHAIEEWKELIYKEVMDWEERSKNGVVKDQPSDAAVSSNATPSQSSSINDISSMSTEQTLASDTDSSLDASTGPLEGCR
ALK tyrosine kinase receptor, sequence (Q9UM73 whole entry): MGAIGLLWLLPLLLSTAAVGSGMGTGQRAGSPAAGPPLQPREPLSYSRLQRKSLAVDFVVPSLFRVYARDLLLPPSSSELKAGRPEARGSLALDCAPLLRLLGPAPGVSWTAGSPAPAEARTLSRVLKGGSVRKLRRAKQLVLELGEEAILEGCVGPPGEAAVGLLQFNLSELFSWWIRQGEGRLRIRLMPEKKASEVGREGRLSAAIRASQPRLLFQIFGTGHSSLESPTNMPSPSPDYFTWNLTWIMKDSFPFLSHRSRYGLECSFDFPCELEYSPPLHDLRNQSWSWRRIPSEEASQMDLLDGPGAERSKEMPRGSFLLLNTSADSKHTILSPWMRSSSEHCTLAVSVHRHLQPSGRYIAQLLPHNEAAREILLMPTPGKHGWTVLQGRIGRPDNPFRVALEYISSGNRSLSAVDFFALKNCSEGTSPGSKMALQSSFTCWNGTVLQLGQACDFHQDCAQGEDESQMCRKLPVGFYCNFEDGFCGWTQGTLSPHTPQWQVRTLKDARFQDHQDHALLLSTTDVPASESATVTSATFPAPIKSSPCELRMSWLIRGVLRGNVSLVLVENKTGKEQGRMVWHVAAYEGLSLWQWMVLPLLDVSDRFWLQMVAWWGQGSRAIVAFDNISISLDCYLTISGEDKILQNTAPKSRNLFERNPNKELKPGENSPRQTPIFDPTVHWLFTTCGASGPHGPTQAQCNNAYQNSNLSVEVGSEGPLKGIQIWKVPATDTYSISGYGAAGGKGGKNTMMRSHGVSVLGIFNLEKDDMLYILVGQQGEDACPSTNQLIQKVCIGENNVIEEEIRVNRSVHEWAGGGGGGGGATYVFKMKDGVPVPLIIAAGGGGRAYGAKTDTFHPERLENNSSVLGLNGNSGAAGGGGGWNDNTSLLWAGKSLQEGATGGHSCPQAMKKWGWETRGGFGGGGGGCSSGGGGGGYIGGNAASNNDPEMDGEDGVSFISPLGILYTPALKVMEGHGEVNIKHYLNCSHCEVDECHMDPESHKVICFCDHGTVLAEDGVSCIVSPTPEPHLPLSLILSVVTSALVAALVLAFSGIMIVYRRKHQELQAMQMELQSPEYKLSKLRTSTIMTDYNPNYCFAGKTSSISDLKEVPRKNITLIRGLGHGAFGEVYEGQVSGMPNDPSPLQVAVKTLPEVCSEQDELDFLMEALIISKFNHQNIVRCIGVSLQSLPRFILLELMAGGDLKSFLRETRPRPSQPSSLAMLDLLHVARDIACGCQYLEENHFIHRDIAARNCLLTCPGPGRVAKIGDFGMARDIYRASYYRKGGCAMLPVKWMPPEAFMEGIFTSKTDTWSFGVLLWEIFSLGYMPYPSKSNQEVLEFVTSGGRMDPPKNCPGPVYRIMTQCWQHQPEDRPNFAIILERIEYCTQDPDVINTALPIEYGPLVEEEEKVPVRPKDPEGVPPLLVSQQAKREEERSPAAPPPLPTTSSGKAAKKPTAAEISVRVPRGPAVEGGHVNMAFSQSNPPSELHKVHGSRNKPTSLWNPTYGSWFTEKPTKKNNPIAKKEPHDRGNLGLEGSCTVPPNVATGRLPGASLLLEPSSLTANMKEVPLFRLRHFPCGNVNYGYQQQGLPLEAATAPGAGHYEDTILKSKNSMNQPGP
Serine/threonine-protein kinase pim-1, sequence (P11309 whole entry): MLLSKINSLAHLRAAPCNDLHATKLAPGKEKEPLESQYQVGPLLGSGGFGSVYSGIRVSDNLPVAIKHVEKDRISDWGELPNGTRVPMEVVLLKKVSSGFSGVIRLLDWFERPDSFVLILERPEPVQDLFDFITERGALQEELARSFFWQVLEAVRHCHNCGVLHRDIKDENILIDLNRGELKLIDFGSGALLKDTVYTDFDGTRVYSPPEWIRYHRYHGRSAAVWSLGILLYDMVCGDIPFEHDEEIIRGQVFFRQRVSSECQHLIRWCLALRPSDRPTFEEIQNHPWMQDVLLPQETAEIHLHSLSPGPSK

With `O=c1[nH]c2cc(Br)cnc2[nH]1`, the Ki was 63.1 µM (active) in [1]; 12.6 µM (active) in assay [2]; 25.1 µM (active) in [3]; 10 µM (active) on Aurora kinase A; 12.6 µM (active) in [4]; 12.6 µM (active) in [5]. The Ki in [6] was 100 µM (active); in assay [7], 63.1 µM (active); in [8], 63.1 µM (active); in assay [9] it was 50.1 µM (active).
With `O=C(Nc1cccc(C(F)(F)F)n1)Nc1ccnc2cc(OC(F)F)ccc12`, the Ki in [1] is > 6.31 µM (inactive); in [2], > 5.01 µM (inactive); in [3], > 6.31 µM (inactive); on Aurora kinase A it was > 1.58 µM (inactive); in [10] it was > 3.98 µM (inactive); in assay [4], > 6.31 µM (inactive). Besides, the Ki in assay [5] was > 3.16 µM (inactive); in [6], > 6.31 µM (inactive); in [8], > 3.98 µM (inactive); in assay [9], > 3.98 µM (inactive).
As to `O=C(Nc1cccc(C(F)(F)F)n1)Nc1ccnc2cc(Cl)ccc12`, the Ki in assay [1] is > 6.31 µM (inactive); in assay [2], > 5.01 µM (inactive); in [3], > 5.01 µM (inactive); on Aurora kinase A, > 1.58 µM (inactive); in assay [10] it was > 3.98 µM (inactive); in [4], > 6.31 µM (inactive). Further, the Ki is > 3.16 µM (inactive) in [5]; > 6.31 µM (inactive) in assay [6]; 0.00794 µM (active) in [7]; > 3.98 µM (inactive) in assay [8]; > 3.98 µM (inactive) in assay [9].
On to `CCC1CC(NS(=O)(=O)C2CC2)CC1c1ncc2cnc3[nH]ccc3n12` (configuration not stated), for which the Ki in assay [1] was 1 µM (active); in assay [2] it was 0.794 µM (active); in assay [3], > 6.31 µM (inactive); at Aurora kinase A it was 1.26 µM (active); in assay [10] it was > 3.98 µM (inactive); in assay [4] it was > 2 µM (inactive). The Ki was > 1.26 µM (inactive) in [5]; > 6.31 µM (inactive) in [6]; > 3.98 µM (inactive) in assay [7]; 2 µM (active) in assay [8]; > 3.98 µM (inactive) in [9].
